Reference: a melting point compilation (Tetko et al.; mined from patent text by program, amines drawn as free bases though some values may be those of a salt)

SMILES | melting point
COC(=O)N(N=Nc1cc(C(F)(F)F)ccc1C#N)c1cc(C(F)(F)F)ccc1C#N | 88 to 90 °C
CC(C)(CCl)C(O)C(Oc1ccc(Cl)cc1)n1ccnc1 (stereo unspecified) | 120 to 125 °C
CCOC(=O)c1cn(Cc2ccccc2)c2c(OC)c(F)c(F)c(N)c2c1=O | 134 to 135 °C
C=CCOC(=O)COc1cccc(NC(=O)NCC(=O)N(CC(=O)OC(C)(C)C)c2ccccc2C(=O)c2ccccc2)c1 | 134 to 136 °C
CCOC(=O)c1cc(OC)c2c(OC(C)C)ccc(Br)c2c1 | 62 °C
O=C(O)C1C2CCC(O2)C1C(=O)NCCN1C(=O)NC(c2ccccc2)(c2ccccc2)C1=O (stereo unspecified) | 208 to 210 °C
CCOC(=O)c1cc(N)cc(N)c1 | 77 to 78 °C
CCCOC(=O)C1=C(C)NC(C)=C(C(=O)OC)C1c1ccccc1[N+](=O)[O-] (stereo unspecified) | 127 to 128 °C
CC(CN(C)C)Oc1ccc(/C=C/C(=O)O)cc1 (stereo unspecified) | 235 °C
COC(=O)C1CCc2c([nH]c3ccc(Cl)cc23)C1 (stereo unspecified) | 175 to 176 °C
OC1Cc2c(Cl)cccc2Sc2ccc(C(F)(F)F)cc21 (stereo unspecified) | 130 to 132 °C
CC(C)C(NC(=O)Cn1cccc(NC(=O)Cc2ccccc2)c1=O)C(=O)C(F)(F)F (stereo unspecified) | 70 to 72 °C
O=C1C=CC2(C=C1)N=C(N1CCN(Cc3ccccc3)CC1)C=C2c1ccccc1 | 190 °C
C#Cc1cc2c(Nc3ccc4c(cnn4Cc4ccccc4)c3)ncnc2s1 | 195 °C
COc1cc(OC)c2c(=O)c(OCCOc3ccc(C(C)=O)cc3)c(-c3ccc(OC)c(OC)c3)oc2c1 | 143 to 144 °C
Cn1cnc2nc(-c3ccc(C(F)(F)F)cc3)nn2c1=S | 270 to 272 °C
CN1C(=O)C(Br)=C(c2c[nH]c3c(OC(c4ccccc4)c4ccccc4)cccc23)C1=O | 205 °C
c1ccc(CN2CCC(NCc3ccc(OCc4ccnc5ccccc45)cc3)CC2)cc1 | 72 to 75 °C
O=C(O)CCCOc1ccc(OCc2ccccc2)cc1 | 125 to 126 °C
O=C1c2ccccc2CNc2nc3ccc(Br)cc3c(Cl)c21 | 260 to 264 °C
CC(=O)C1CCCS1(=O)=O (stereo unspecified) | 119 to 120 °C
COc1ccc2nc(-n3nc4c(c3O)-c3ccccc3CC4)sc2c1 | 204 to 205 °C
Cc1ccc(NC(=O)N[C@]2(C3CCCCC3)N=Cc3ccccc3N(C)C2=O)cc1Nc1nnn[nH]1 | 190 to 193 °C
COc1cc(N2CCC(N3CCOCC3)C2)ccc1Nc1ncc2ccc(-c3ccccc3N(C)S(C)(=O)=O)n2n1 (stereo unspecified) | 110 to 119 °C

SMILES | melting point
CCOCc1nc2c(N)nc3ccccc3c2n1CCCON=C(C)C | 109 to 111 °C
O=C(O)CCCCCCNC(=O)C1Cc2ccccc2N1S(=O)(=O)c1ccc(-c2cccc(C(F)(F)F)c2)cc1 (stereo unspecified) | 65 to 70 °C
O=C(O)Cc1csc(-c2cccc(O)c2)n1 | 172 to 174 °C
COC(=O)c1c(C(F)(F)F)[nH]c2c(OCc3ccccc3)cc3c(c12)C(CCl)CN3C(=O)OC(C)(C)C (stereo unspecified) | 162 °C
COCOc1ccc(OC)c(F)c1C(=O)c1ccc(C(=O)N[C@@H]2CCCN(C(=O)OC(C)(C)C)C[C@H]2NC(=O)c2ccncc2)cc1 | 106 °C
CNC(=O)c1ccc2c(c1Nc1nc(Nc3ccc4c(c3)CCCC(=O)N4C)ncc1Cl)OCO2 | 254 to 256 °C
COC(=O)[C@@H]1CCCCCOc2ccc(cc2)C[C@H](NC(=O)OCc2ccccc2)C(=O)N[C@@H](CC(C)C)C(=O)N1 | 91 to 93 °C
O=C(O)c1ccc2c(c1)CCc1c(Cl)cccc1C2=O | 258 to 260 °C
CC(O)c1c(Cl)nc2n(c1=O)CCS2 (stereo unspecified) | 171 to 172 °C
NCc1ccc(F)cc1C(F)(F)C(F)(F)c1ccccc1 | 52.5 to 54 °C
O=C1NCCN(NC(=O)c2cc(OCc3ccccc3)c(OCc3ccccc3)cn2)C1=O | 231 °C
CCn1c(=N)c(-c2ccc(-c3ccccc3)cc2)cc2cnc(Nc3ccccc3)nc21 | 245 to 249 °C
N#Cc1nn(-c2c(Cl)cc(C(F)(F)F)cc2Cl)c(C(O)C(F)(F)F)c1SC(F)(F)F (stereo unspecified) | 106 °C
CC(C)Oc1ccc(/C=C(\NC(=O)c2ccc(OCCC(F)(F)F)cc2)C(=O)NCCO)cc1 | 84 to 86 °C
C=CCOc1ccc(C(=O)OC2CCC(CCCCCCC(=O)C(=C)C)CC2)cc1 (stereo unspecified) | 50 °C
O=C(O)COc1ccc(C(=O)c2ccccc2O)c(Cl)c1Cl | 201 to 203 °C
CCCN(c1ccccc1)c1nc(C)nc(Cl)c1[N+](=O)[O-] | 99.8 to 100 °C
O=C(NCCCC(c1cc(F)ccc1F)S(=O)(=O)c1ccc(Cl)cc1)OCCI (stereo unspecified) | 100 to 101 °C
CS(=O)(=O)c1cccc(S(C)(=O)=O)n1 | 192 to 195 °C
CN(C)C1=NC(=O)C(Cc2cccc(-c3ccc(O)c(C45CC6CC(CC(C6)C4)C5)c3)c2)S1 (stereo unspecified) | 243 to 246 °C
CN1CCN(c2ccc(C=CC(=O)N3CCc4c([nH]c5ccccc45)C3c3ccc4c(c3)CCO4)cn2)CC1 (stereo unspecified) | > 260 °C
CC(C(=O)O)(c1ccc(N2CCCC2)cc1)c1ccc(N2CCCC2)cc1 | 174 to 176 °C
CSC(=N)NS(=O)(=O)c1c(Cl)sc(Cl)c1Br | 113 to 115 °C
O=C1CC(O)c2ccc(F)cc21 (stereo unspecified) | 73 to 76 °C

SMILES | melting point
CCCc1c(OCCCCCc2ccc(O)c(O)c2)ccc(C(C)=O)c1O | 126 to 127 °C
O=Cc1ccn(-c2cc3c(cc2C(F)(F)F)[nH]c(=O)c(=O)n3CC(=O)O)c1 | > 250 °C
CC(C)(C)c1nc(C=O)nc(C(C)(C)C)c1O | 187 to 189 °C
CC(C)(C)OC(=O)C(=O)C=[N+]=[N-] | 100 °C
N#Cc1cnc2sc(-c3ccccc3)cc2c1-c1ccc2[nH]ccc2c1 | > 245 °C
CCNC(=O)n1nc(Oc2ccc([N+](=O)[O-])c(C)c2)cc1C | 67 to 69 °C
Cc1nnc2n1-c1sccc1C(c1ccccc1)=NC2 | 224 to 226 °C
CCCCCCCCCCCCCCOc1ccc(C(=O)N(Cc2cccnc2)C(C)=O)cc1 | 46 to 48 °C
Cc1nc2c3c(c(C(=O)N4CCOCC4)cc2n1C)CCC1(Cc2ccccc2C1)N3 | 284 to 285 °C
CSCC1Cc2cc(C)c3[nH]c(=O)ccc3c2O1 (stereo unspecified) | 203 to 206 °C
CC1(C)C(=O)NC(=O)c2c1ccc1nc(Nc3c(Cl)cccc3Cl)[nH]c21 | 290 to 292 °C
CC1CC2C3CCC4=CC(=O)C=CC4(C)C3=CCC2(C)C1C(=O)COS(=O)(=O)c1ccc([N+](=O)[O-])cc1 (stereo unspecified) | 151 to 160 °C
O=c1[nH]c2ccc(S(=O)CCN3CCC(Cc4ccc(F)cc4)CC3)cc2o1 (stereo unspecified) | 202 to 204 °C
O=C(Nc1c(-c2ccccc2F)nnn1CSc1ccccc1)C(Cl)C1CCC1 (stereo unspecified) | 103 to 104 °C
OC1(c2ccc(Cl)cc2)CN(C(c2ccccc2)c2ccccc2)C1 | 108 °C
CN(CCc1ccc(NS(C)(=O)=O)cc1)Cc1cc2cc(NS(C)(=O)=O)ccc2o1 | 177 to 179 °C
COc1ccc(Nc2nc(NC(C)C)nc(N(C)C3CCNCC3)n2)cc1Cl | 129 °C
COc1nc2cc([N+](=O)[O-])c(C)c(C(=O)NCCC(=O)OC(C)(C)C)c2nc1OC | 140 to 142 °C
COC(=O)c1cc(N2CCN([C@H]3CC[C@@H](c4cn(C)c5ccc(C#N)cc54)CC3)CC2)c2ncccc2c1 | 153 to 155 °C
Cc1c(CCC(=O)O)c[nH]c1C=O | 128 to 134 °C
COc1ccc(Cc2cnc(N)nc2N)c(OC)c1O | 246 to 248 °C
CC(C)(C)OC(=O)NC1COCCCC=CC2CC2(C(=O)NS(=O)(=O)C2CC2)NC(=O)C2CC(OC(=O)c3ccc(Oc4ccccc4)cc3)CN2C1=O (stereo unspecified) | 207 to 209 °C
CCCC12CSC(SC1)SC2 | 139 °C
c1ccc(NCCCCCCCNc2ccccc2)cc1 | 52 to 54 °C

SMILES | melting point
O=C(CC(=O)c1ccc(C(F)(F)F)cc1[N+](=O)[O-])c1ccc([N+](=O)[O-])cc1 | 139 to 140 °C
CCOC(=O)CC(NC(=O)CNC(=O)c1csc(NC(=N)N)n1)c1cccnc1 (racemic) | 114 °C
OC1(c2ccc(Cl)c(C(F)(F)F)c2)CCN(CCCc2nnc3n2CCCCC3)CC1 | 151 °C
CC(NC(=O)C(C)(C(C)C)C(C)C)c1ccco1 (stereo unspecified) | 57 to 60 °C
N#Cc1cnn2c3c(c(C(=O)O)nc12)CCN3C1CCCCC1 | 253 to 255 °C
CC(C)(C)N(NCc1ccccc1)C(=O)c1ccccc1 | 110 °C
Nc1ncnc2ncn([C@H]3C=C[C@@H](O)C3)c12 (racemic) | 195 to 197 °C
O=C1c2cc(OCc3ccccn3)ccc2OCC1Oc1cccnc1 (stereo unspecified) | 155 to 156 °C
COc1ccc(-c2ccnc3c(C(=O)c4cccs4)cnn23)cc1NC(=O)CC(C)C | 192 to 194 °C
CC(=O)OC1(C(C)=O)C(C)CC2C3CCC4=CC(=O)C=CC4(C)C3=CCC21C (stereo unspecified) | 230 to 233 °C
Cc1ccc(S(=O)(=O)c2nc(C(N)=O)n[nH]2)cc1 | 148 to 150 °C
CCOCc1nc2c(N)nc3cc(N4CCOC4=O)cnc3c2n1CC(C)C | 174 to 176 °C
O=C(O)C(NC(=O)C(F)(F)F)c1ccccc1 (stereo unspecified) | 155 to 157 °C
CCCN(CCC)C(=O)C(C)Oc1nc(-c2ccccc2)nc2c1CCCC2 (stereo unspecified) | 73 to 74 °C
COc1ccc(NC(=O)c2ccc(N)cc2NC(=O)c2ccc(C(C)(C)C)cc2)cc1 | 137 to 140 °C
CC(C)(C)OC(=O)N1CCN(C(=O)N2CCOCC2)CC1 | 171 to 173 °C
CC(=O)c1ccc(OCCOc2ccc3ccccc3c2)cc1Cl | 119 to 120 °C
N#CCCN1CCN(c2cc3cccnc3c(-c3cccc(C#N)c3)n2)CC1 | > 200 °C
Cc1nc(CNC(=O)c2ccnc(N3CCN(Cc4ccc(F)cc4)C3=O)c2)cs1 | 76 to 78 °C
O=C(C=Cc1ccccc1)N1CCc2c([nH]c3ccccc23)C1c1ccc2c(c1)CCC2 (stereo unspecified) | 223 °C
O=c1c2cccnc2n(-c2cccc(Cl)c2)c2cc[nH]c12 | 300 to 301 °C
CCN(CC)CC(O)c1c(OC)ccc2c(C)c(C)oc12 (stereo unspecified) | 55 °C
COC(=O)c1ccc2[nH]cc(CCCCN3CCN(c4ccccc4OC)CC3)c2c1 | 195 to 196 °C
CC(C)N1C(=O)C(C)(C)N=C(c2ccccc2Cl)c2cc(N)ccc21 | 243 to 244 °C
